Counter-ions that a name gives are not always drawn.
Tested on: Frataxin (FXN) mRNA
Assay: Effect of HDAC inhibitors on frataxin (FXN) mRNA expression, qRT-PCR in compound-treated iPSC derived neuronal cells
Format: cell-based
Settings: iPSC, 24 h, compound concentration of 0.625 μM, 24 h incubation, read-out: FXN mRNA fold induction
Method in brief: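 iPSC-derived neuronal cells, differentiated 16 days without EGF/bFGF, treated with compound 24 h. FXN mRNA measured by one-step SYBR Green qRT-PCR; fold induction reported at 0.625 μM compound, binned A<1, 1<B<2, 2<C<3, 3<D<5, E>5.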

SMILES: Nc1ccccc1NC(=O)c1ccc(NC2CCN(C3COC3)CC2)cc1 [Compound 141, N-(2-aminophenyl)-4-((1-(oxetan-3-yl)piperidin-4-yl)amino)benzamide]
- fold induction at 0.625 µM: 1 to 2

SMILES: Nc1ccccc1NC(=O)c1ccc(NC2CCN(CC34CC5CC(CC(C5)C3)C4)CC2)cc1 [Compound 142, 4-((1-(((3r,5r,7r)-adamantan-1-yl)methyl)piperidin-4-yl)amino)-N-(2-aminophenyl)benzamide trihydrochloride]
- fold induction at 0.625 µM: 2 to 3

SMILES: CC(=O)N1CC(Nc2ccc(C(=O)Nc3ccccc3N)cc2)C1 [Compound 170, 4-((1-acetylazetidin-3-yl)amino)-N-(2-aminophenyl)benzamide]
- fold induction at 0.625 µM: 1 to 2

SMILES: CC(C)(O)CN1CCC(Oc2ccc(C(=O)Nc3ccccc3N)cc2)CC1(C)C (stereo not drawn) [Compound 363, N-(2-aminophenyl)-4-((1-(2-hydroxy-2-methylpropyl)-2,2-dimethylpiperidin-4-yl)oxy)benzamide]
- fold induction at 0.625 µM: 2 to 3

SMILES: CC(C)(O)CN1CCC(Nc2ccc(C(=O)Nc3ccccc3N)cc2)CC1(C)C (stereo not drawn) [Compound 369, N-(2-aminophenyl)-4-((1-(2-hydroxy-2-methylpropyl)-2,2-dimethylpiperidin-4-yl)amino)benzamide]
- fold induction at 0.625 µM: 1 to 2

SMILES: CC(C)(O)CN1CCC(Sc2ccc(C(=O)Nc3ccccc3N)cc2)CC1 [Compound 375, N-(2-aminophenyl)-4-((1-(2-hydroxy-2-methylpropyl)piperidin-4-yl)thio)benzamide]
- fold induction at 0.625 µM: 1 to 2

Source: patent US10308608B2, “Histone deacetylase inhibitors” (BIOMARIN PHARMACEUTICAL INC., priority 2015, dated 2019)
